# Legend:
# H4IIE rat hepatoma cells = assay: In vitro gluconeogenesis: glucose production; assay type: cell-based; details: HII4E liver cells; for IC50: range of 5 concentrations; for activity on glucose production relative to SF: same concentrations
# Protocol: H4IIE rat hepatoma cells (CRL-1548, American Type Culture Collection, Manassas, Va.) were assayed for glucose production as previously described (21). Cell viability was measured by the 3-(4,5-Dimethyl-2-thiazolyl)-2,5-diphenyltetrazolium bromide (MTT; TCI, Portland, Oreg.) assay (22). RNA extraction, cDNA synthesis and qPCR for gene expression of PEPCK and G6P were performed as described above.
# NO formation = details: Cheenpracha et al., 2010; read-out: NO inhibition IC50; cited from earlier work
# IL-6 = assay: LPS-induced IL-6 gene expression in RAW 264.7 macrophages; assay type: cell-based; details: 5 μM; RAW 264.7, LPS
# Protocol: (§1) All reagents were supplied from Sigma-Aldrich Co. (St. Louis, Mo.) unless otherwise noted. RAW 264.7 macrophages (ATCC TIB-71) were maintained in Dulbecco's modified Eagle's medium (Caisson, North Logan, Utah) supplemented with 100 U/mL penicillin, 100 μg/mL streptomycin, and 10% fetal bovine serum. Cells were incubated at 37° C. in a 5% CO2 humidified atmosphere and subcultured by cell scraping. For experiments, RAW cells were plated at a density of 4×10^5 cells/mL in 24-well plates. Cells were incubated overnight (18 h), washed with warm 37° C. PBS, and medium was replaced fresh DMEM medium. […] Lipopolysaccharide (1 μg/mL) was added after 2 h incubation with treatments to elicit inflammatory responses. Cells were treated in duplicate or triplicate. After an additional 6 h incubation period, media were collected and cells were washed with PBS prior to collection in TRIzol® Reagent (Ambion, Life Technologies). […]
# (§2) Total RNA was extracted from cells according to manufacturer's specifications. […] RNA integrity was evaluated by running about 1 μg of RNA on a 1% agarose gel. […]
# (§3) Quantitative PCR amplifications were performed on an ABI 7300 Real-Time PCR System (Applied Biosystems) with the following thermal cycler profile: 2 minutes, 50° C.; 10 minutes, 95° C.; 15 seconds, 95° C.; 1 minute, 60° C. for the dissociation stage; 15 seconds, 95° C.; 1 minutes, 60° C.; and 15 seconds, 95° C. […]
# Nitric oxide (NO) = assay: Nitric oxide production analysis (Griess) in RAW 264.7 macrophages; assay type: cell-based; details: 5 μM
# Protocol: (§4) All reagents were supplied from Sigma-Aldrich Co. (St. Louis, Mo.) unless otherwise noted. RAW 264.7 macrophages (ATCC TIB-71) were maintained in Dulbecco's modified Eagle's medium (Caisson, North Logan, Utah) supplemented with 100 U/mL penicillin, 100 μg/mL streptomycin, and 10% fetal bovine serum. Cells were incubated at 37° C. in a 5% CO2 humidified atmosphere and subcultured by cell scraping. For experiments, RAW cells were plated at a density of 4×10^5 cells/mL in 24-well plates. Cells were incubated overnight (18 h), washed with warm 37° C. PBS, and medium was replaced fresh DMEM medium. […] Lipopolysaccharide (1 μg/mL) was added after 2 h incubation with treatments to elicit inflammatory responses. Cells were treated in duplicate or triplicate. After an additional 6 h incubation period, media were collected and cells were washed with PBS prior to collection in TRIzol® Reagent (Ambion, Life Technologies). Samples were stored at −80° C. prior to processing.
# After treatments, 1 mL of media was collected and assayed in duplicate following the Griess Reagent System provided by Promega (Promega Corporation; Madison, Wis.). The nitrite standard (0.1 M sodium nitrite) reference curve was built performing a serial dilution (0 to 100 μM). Absorbance was read at 540 nm.
# TNF-α [1] = assay: TNF-α secretion analysis (ELISA) in RAW 264.7 macrophages; assay type: cell-based, Mouse; details: 5 μM
# Protocol: as §4
# After treatments, 1 mL of media was collected and immediately centrifuged at 13,500 g at 4° C. for 10 minutes. The supernatant was preserved at −80° C. until further processing with the BD OptEIATM Mouse TNF ELISA kit (BD Bioscience, San Jose, Calif.) following the manufacturer's protocol. […] TNF-α levels were quantified using a reference standard curve provided with the kit. Absorbance was read at 450 nm and corrected at 570 nm.
# TNF-α [2] = assay: LPS-induced TNF-α gene expression in RAW 264.7 macrophages; assay type: cell-based; details: any of the concentrations tested; RAW 264.7, LPS
# Protocol: as §1, §2, §3
# iNOS = assay: LPS-induced iNOS gene expression in RAW 264.7 macrophages; assay type: cell-based; details: 1 and 5 μM; RAW 264.7, LPS
# Protocol: as §1, §2, §3
# IL-1β = assay: LPS-induced IL-1β gene expression in RAW 264.7 macrophages; assay type: cell-based; details: 1 and 5 μM; RAW 264.7, LPS
# Protocol: as §1, §2, §3
# RAW 264.7 macrophages = assay: MTT-based cell viability assay; details: concentrations tested in anti-inflammatory assays
# Protocol: The effect of the treatments on cell viability was measured using MTT [3-(4,5-dimethyl-2-thiazolyl)-2,5-diphenyltetrazolium bromide] (TCI, Portland, Oreg.) (Mosmann, 1983). MTT (5 mg/mL) was dissolved in PBS (Cayman Chemical, Ann Arbor, Mich.), filtered through a 0.22 μm membrane and added to treated cells during the last 3-4 hours of treatment. Media were carefully aspirated and cells were dissolved in DMSO. The absorbance was read at 570 nm.
# [3] = Compound stability of MICs in moringa extract stored at 37° C.; assay type: physicochemical; details: 37° C. for 30 days, compared to day 0
# [4] = rotoevaporation 1 hour at 50° C., compared to freeze-dried samples
# Source text: Drying the 1:5 ratio preparations can be achieved by rotoevaporation, followed by freeze-drying or spray drying. […] Further concentration of MICs and removal of sugars from the extract can also be performed with solid phase-extraction (SPE).
# [5] = after 6 days at 37° C.; Franklin et al., 2013; cited from earlier work
IC50 (H4IIE rat hepatoma cells; Rattus norvegicus) [µM],Structure (SMILES),IC50 (NO formation) [µM],IL-6 gene expression (IL-6),NO formation (Nitric oxide (NO)),reduction of TNF-α production (TNF-α [1]) [%],TNF-α gene expression (TNF-α [2]),activity on glucose production relative to SF (H4IIE rat hepatoma cells),mRNA expression of iNOS (iNOS),mRNA expression of IL-1β (IL-1β),cytotoxicity (MTT cell viability) (RAW 264.7 macrophages),degradation of MIC in moringa extract [3],loss of MIC under rotoevaporation conditions [4],degradation of SF [5] [%],IC50 (H4IIE rat hepatoma cells) [µM]
800,"CN(C)C(=N)N=C(N)N [metformin, reference compound]",–,–,–,–,–,–,–,–,–,–,–,–,–
–,"C[C@@H]1O[C@@H](Oc2ccc(CN=C=S)cc2)[C@H](O)[C@H](O)[C@H]1O [MIC-1, 4-[(α-L-rhamnosyloxy)benzyl] isothiocyanate]",14.4,decrease IL-6 gene expression significantly,inhibited NO formation,20,no reduction,superior activity to SF,significant reduction,significant reduction,no signs of cytotoxicity,approximately 80%,No significant loss,–,–
–,"C[S+]([O-])CCCCN=C=S (stereo not drawn) [SF, sulforaphane]",–,–,–,–,–,–,–,–,–,–,–,75,–
–,"CC(=O)O[C@@H]1[C@@H](O)[C@@H](O)[C@H](Oc2ccc(CN=C=S)cc2)O[C@H]1C [MIC-4, 4-[(4′-O-acetyl-α-L-rhamnosyloxy)benzyl] isothiocyanate]",2.71,–,inhibited NO formation,27,no reduction,superior activity to SF,significant reduction,significant reduction,no signs of cytotoxicity,~20%,No significant loss,–,7

# From patent US20160243176A1, “EXTRACTS FROM PLANTS OF THE MORINGACEAE FAMILY AND METHODS OF MAKING” (RUTGERS, THE STATE UNIVERSITY OF NEW JERSEY, priority 2013, published 2016)
